In US4891374A, “Imidazo- and triazolothiadiazines” (Hoechst Aktiengesellschaft, priority 1987, dated 1990):
Structures can show the parent of a compound that is named as a salt.

Experiments:
[1] = test system: mitochondrial lipid peroxidation; assay: In-vitro inhibition of lipid peroxidation (thiobarbituric acid test), mitochondria; type: biochemical; details: rat liver mitochondria
From the text: (§1) Further convincing evidence of the pronounced protective action of the compounds according to the invention against aggressive oxygen radicals is provided by the thiobarbituric acid test of A. Ottolenghi (Arch. Biochem. Biophys. 79 (1959) pp. 355-363). Using this in-vitro method, the influence on microsomal and mitochondrial lipid peroxidation by antioxidatively active preparations can be determined from the malonodialdehyde produced on oxidative degradation of membrane-bound, polyunsaturated fatty acids.
(§2) Here too, the compounds of the formula I exerted a strong inhibitory action.

5-lipoxygenase = assay: Inhibition of 5-lipoxygenase in isolated polymorphonuclear granulocytes (LTB4 and 5-HETE formation); type: cell-based, human; details: 10^-5 to 10^-6 mol/l; pre-incubation 15 minutes; calcium ionophor A 23 187-stimulated; 15 minutes at 37° C.
Experimental: The inhibitory action of the compounds according to the invention on 5-lipoxygenase-catalyzed degradation of arachidonic acid was determined, as usual, in in-vitro experiments on isolated polymorphonuclear human granulocytes. To this purpose, cells stimulated by calcium ionophor A 23 187 (Calbiochem GmbH, Frankfurt/Main, FRG, Biochemical and Immunochemical Catalog 1985, p. 284) were incubated with ^14 C-labeled arachidonic acid, and the major radioactive degradation products of arachidonic acid formed after 15 minutes at 37° C. by biotransformation, 5-hydroxyeicosatetraenoic acid (5-HETE) and leucotriene B4 (LTB4), which has a particularly strong pro-inflammatory action, were determined quantitatively with the aid of a radio monitor after separation by high-pressure liquid chromatography (HPLC).

[2] = test system: microsomal lipid peroxidation; assay: In-vitro inhibition of lipid peroxidation (thiobarbituric acid test), microsomes; type: biochemical; details: rat liver microsomes
From the text: as §1, §2

Adjuvant arthritis = Adjuvant arthritis (Pearson): reduction in increase in paw volume; type: in vivo, male rats of the Wistar-Lewis strain; details: 50 mg/kg p.o. once daily day 1 to day 5; reduction in increase in paw volume vs control
Experimental: The investigations were carried out using the method of Pearson (Arthrit. Rheum. 2 (1959), p. 44). The experimental animals used were male rats of the Wistar-Lewis strain having a body weight between 130 and 200 g. Compounds to be tested were administered orally (p.o.) once daily from day 1 to day 5 of the experiment in doses of 50 mg per kg of body weight. The animals in a control group were given only the vehicle. Each preparation group and the control group contained 8 animals. The criterion used to determine the action was the percentage reduction in the increase in paw volume compared to that of the untreated control group.

[3] = test system: lymphocytes from the spleen; assay: Inhibition of immunopathological processes: type II collagen-induced arthritis, immune activity of spleen lymphocytes towards mitogens; type: in vivo, male Wistar rats; details: 20-day treatment phase
From the text: It is generally accepted today that the advanced course of inflammatory rheumatic disorders is caused mainly by disfunctions in the immune system and that causal therapy can only succeed using medicaments which are capable of interrupting these immunopathological processes.
In this experiment, arthritis was induced in male Wistar rats by means of type II collagen, which could be obtained by standard methods of Miller and Rhodes (Meth. Enzymol. 82 (1982), p. 33) from the nasal septum of the calf and, mixed with Freund's incomplete adjuvant, was injected intradermally into the animals. This immunization procedure was repeated 7 days later. 20 days after the initial immunization, the sick rats were divided into groups each containing 7 animals, which, in the subsequent 20-day treatment phase, received the respective test substance or the pure vehicle (control group) once daily orally.
On day 41 of the experiment, ie. one day after the final administration of substance, lymphocytes were obtained from the spleen of the experimental animals and their immune activity towards mitogens was investigated, since the immune status of lymphocytes is also sensitively impaired in this model.

in vivo [4] = details: mouse, ip
Experimental: The LD50 values were determined by standard methods from the mortality occurring within 7 days in NMRI (Naval Medical Research Institute) mice (6 animals per dose) after a single intraperitoneal (i.p.) administration.

lymphocytes = assay: Inhibition of immunopathological processes: adjuvant arthritis, immune activity of lymphocytes towards mitogens; type: in vivo, rat
[5] = test system: Adriamycin (doxorubicin) induced inflammation; assay: Adriamycin-induced inflammation (paw volume); type: in vivo, male Sprague-Dawley rats; details: for protective effect against Adriamycin-induced tissue destruction: orally once daily on 4 successive days
From the text: According to current opinion, aggressive oxygen radicals, which are formed to excess during the chronic inflammation process and, as highly toxic inflammation mediators themselves, perpetually maintain the destruction of connective tissue which proceeds via irreversible lipid peroxidation of the cell membranes, participate prominently in the progressive course, caused by a number of factors, of rheumatoid arthritis and other inflammatory disorders. As a consequence, pharmaceuticals having an antioxidative action and having the capability to deactivate these extremely cytotoxic oxygen radicals should allow specific intervention in the chronic course of the inflammation. A suitable animal model for this type of tissue destruction caused by oxygen radicals is Adriamycin (doxorubicin) induced inflammation in the rat. The investigations were carried out using the method of D. M. Siegel et al. (Inflammation 4 (1980), p. 233) on male Sprague-Dawley rats having a body weight between 200 and 230 g in groups each containing 7 animals, which received 0.1 mg of Adriamycin, dissolved in 0.1 ml of 0.9% strength sodium chloride solution, by means of subcutaneous injection into the left rear paw. The increase in paw volume was determined 72 hours later by plethysmographic measurement as a measure of the degree of inflammation. The test preparations were administered orally in 1% strength aqueous carboxymethylcellulose suspension once daily on 4 successive days, starting with the day of Adriamycin injection.

in vivo [6] = details: rat, po
Experimental: The investigation was in each case carried out on 10 male Sprague-Dawley rats whose gastric mucous membrane had been sensitized by hunger stress. The body weight of the animals was between 200 and 300 g. While allowing free access to the drinking water, the feed was withdrawn 48 hours before administration of the test preparations until sacrifice of the animals. The rats were sacrificed 24 hours after oral administration of the substance, and the stomachs were removed, cleaned under running water and inspected for mucous membrane lesions. All macroscopically visible lesions were regarded as ulcers. The number of animals having ulcers was determined per dose, and this figure was used to calculate, by the method of Litchfield and Wilcoxon (J. Pharmacol. Exp. Ther. 96 (1949), p. 99), the UD50 values, ie. the doses at which lesions were caused in 50% of the animals.

| Structure (SMILES) | Adjuvant Arthritis (% inhibition at 50 mg/kg p.o.) (Adjuvant arthritis) [%] | LD50 at 168 h (in vivo [4]) [mg/kg] | TD50 at 24 h (in vivo [6]) [mg/kg] | further results |
| --- | --- | --- | --- | --- |
| CC(C)(C)c1cc(C2=NN3CCN=C3SC2)cc(C(C)(C)C)c1O [Example 1, 3-(3,5-Di-tert.butyl-4-hydroxyphenyl)-6,7-dihydro-2H-imidazo[2,1-b][1,3,4]thiadiazine hydrochloride] | 62 | > 1200 | 400 | IC50 [1]: 4000 nM; inhibition of formation of 5-HETE (5-lipoxygenase): significantly inhibit; inhibition of formation of LTB4 (5-lipoxygenase): significantly inhibit; IC50 [2]: 500 nM; immune function of B lymphocytes ([3]; 25 mg/kg p.o. once daily): completely normalized; immune function of T lymphocytes ([3]; 25 mg/kg p.o. once daily): completely normalized; normalization of the immunoreactivity (lymphocytes; oral administration of 20 mg/kg): substantial normalization of the immunoreactivity; inhibition of Adriamycin-induced tissue destruction ([5]; 80 mg/kg p.o. once daily on 4 successive days, paw volume 72 hours after Adriamycin): 55%; protective effect against Adriamycin-induced tissue destruction [5]: dose-dependent protective effect |
| CC1SC2=NCCN2N=C1c1cc(C(C)(C)C)c(O)c(C(C)(C)C)c1 (stereo not shown) [Example 2, 3-(3,5-Di-tert.butyl-4-hydroxyphenyl)-2-methyl-6,7-dihydro-2H-imidazo[2,1-b][1,3,4]thiadiazine hydrochloride] | 63 | > 1200 | 200 | – |
| CC(C)(C)c1cc(C2=Nn3ccnc3SC2)cc(C(C)(C)C)c1O [Example 4, 3-(3,5-Di-tert.butyl-4-hydroxyphenyl)-2H-imidazo[2,1-b][1,3,4]thiadiazine hydrochloride] | 69 | 300 to 600 | > 200 | – |
| CC1Sc2nncn2N=C1c1cc(C(C)(C)C)c(O)c(C(C)(C)C)c1 (stereo not shown) [Example 5, 3-(3,5-Di-tert.butyl-4-hydroxyphenyl)-2-methyl-2H-s-triazolo[3,4-b][1,3,4]thiadiazine] | 56 | > 1200 | > 200 | – |
| CC(C)(C)c1cc(C2=NN3CC(=O)N=C3SC2)cc(C(C)(C)C)c1O [Example 6, 3-(3,5-Di-tert.butyl-4-hydroxyphenyl)-7-oxo-6,7-dihydro-2H-imidazo[2,1-b][1,3,4]-thiadiazine hydrobromide] | 73 | 300 to 600 | > 200 | – |
| CC(C)(C)c1cc(C2=NN3C(=O)CN=C3SC2)cc(C(C)(C)C)c1O [Example 7, 3-(3,5-Di-tert.butyl-4-hydroxyphenyl)-6-oxo-6,7-dihydro-2H-imidazo[2,1-b][1,3,4]thiadiazine hydrobromide] | 59 | 300 to 600 | > 200 | – |
| COc1ccc2cc(C(C)C(=O)O)ccc2c1 (stereo not shown) [naproxen, 2-(6-methoxy2-naphthyl)-propionic acid, reference compound] | 55 | – | – | curative effects on the greatly weakened immune system ([3]; once daily orally): no action; stimulating action on suppressed immunological response (lymphocytes; doses up to 25 mg/kg): ineffective; protective effect against Adriamycin-induced tissue destruction [5]: ineffective |
